Assay results taken from ChEMBL document CHEMBL1201862, “PubChem BioAssay data set” (2004).
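Briefly, cells in 96-well plates were exposed to five compound concentrations for 48 h, and endpoints were estimated by linear interpolation. GI50 = concentration required for 50% inhibition of growth.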 Active and inactive are the calls of the source. Cut-off read from the data, not from the text of the source: active = GI50 up to about 1.1 µM and inactive = higher. Where a SMILES comes first, the peptide text is derived from it. The star is where a group is joined. Cbz = O=C(OCc1ccccc1)*; NHNH2 = NN*

Columns and labels:
Assay in all cases: DTP human tumour cell line panel, 48 h
[1] = tested on: SK-MEL-28
[2] = tested on: HCT-116
[3] = tested on: K562
[4] = tested on: SN12C
[5] = tested on: HL-60
[6] = tested on: MOLT-4
[7] = tested on: ACHN
[8] = tested on: LOX IMVI
[9] = tested on: HCC 2998
[10] = tested on: RXF 393
[11] = tested on: SR
[12] = tested on: OVCAR-5
[13] = tested on: A549
[14] = tested on: 786-0
[15] = tested on: EKVX
[16] = tested on: SK-MEL-2
[17] = tested on: NCI-H522
[18] = tested on: UACC-62
[19] = tested on: KM12
[20] = tested on: OVCAR-4

SMILES | GI50 [1] | GI50 [2] | GI50 [3] | GI50 [4] | GI50 [5] | GI50 [6] | GI50 [7] | GI50 [8] | GI50 [9] | GI50 [10] | GI50 [11] | GI50 [12] | GI50 [13] | GI50 [14] | GI50 [15] | GI50 [16] | GI50 [17] | GI50 [18] | GI50 [19] | GI50 [20]
CCOC(O)(NC(=O)C(C(F)(F)F)C(F)(F)F)C(F)(F)F (stereo not drawn) | > 100 µM (inactive) | > 100 µM (inactive) | > 100 µM (inactive) | > 100 µM (inactive) | > 100 µM (inactive) | > 100 µM (inactive) | > 100 µM (inactive) | > 100 µM (inactive) | > 100 µM (inactive) | > 100 µM (inactive) | > 100 µM (inactive) | > 100 µM (inactive) | > 100 µM (inactive) | > 100 µM (inactive) | > 100 µM (inactive) | > 100 µM (inactive) |  |  |  | 
CC(C)C(=O)OCC1OC(n2c(Br)nc3c(=O)[nH]c(N)nc32)C(OC(=O)C(C)C)C1OC(=O)C(C)C (stereo not drawn) |  | 30.1 µM (inactive) |  | 48 µM (inactive) |  | 19.3 µM (inactive) | > 100 µM (inactive) | 19.8 µM (inactive) |  |  | 38 µM (inactive) | 75.2 µM (inactive) | 35.6 µM (inactive) | 23.1 µM (inactive) | > 100 µM (inactive) | 68.1 µM (inactive) | 35.2 µM (inactive) | 31.8 µM (inactive) |  | 
Cn1nc(-c2ccc(S(=O)(=O)N/C(=N/c3ccc(Cl)cc3)NN)s2)cc1C(F)(F)F | 18.3 µM (inactive) | 14.9 µM (inactive) | 14.1 µM (inactive) | 15.3 µM (inactive) | < 0.01 µM (active) | 4.06 µM (inactive) | 18.4 µM (inactive) | 18.3 µM (inactive) |  | 11.1 µM (inactive) | 17.4 µM (inactive) | 15.9 µM (inactive) | 15 µM (inactive) | 14.9 µM (inactive) | 14.8 µM (inactive) | 19.2 µM (inactive) |  | 16.9 µM (inactive) | 16.6 µM (inactive) | 15.9 µM (inactive)
O=C(OCCN=c1c2ccccc2ccc2ccccc12)c1cc([N+](=O)[O-])cc([N+](=O)[O-])c1 | > 100 µM (inactive) | > 100 µM (inactive) | > 100 µM (inactive) | > 100 µM (inactive) | > 100 µM (inactive) | > 100 µM (inactive) | > 100 µM (inactive) | > 100 µM (inactive) |  | > 100 µM (inactive) | > 100 µM (inactive) | > 100 µM (inactive) | > 100 µM (inactive) | > 100 µM (inactive) | > 100 µM (inactive) | > 100 µM (inactive) |  | > 100 µM (inactive) | > 100 µM (inactive) | 36.1 µM (inactive)
COc1ccc(C2=C(OC(=O)N(C)C)c3cccn3-c3cc(Cl)ccc3S2)cc1 | > 10 µM (inactive) |  | 8.91 µM (inactive) | > 10 µM (inactive) | 6.1 µM (inactive) | 7.89 µM (inactive) |  | > 10 µM (inactive) | > 10 µM (inactive) | > 10 µM (inactive) | 6.38 µM (inactive) |  | > 10 µM (inactive) | > 10 µM (inactive) | > 10 µM (inactive) |  |  | > 10 µM (inactive) | > 10 µM (inactive) | 6.79 µM (inactive)
NC1CNC(=O)c2c(Cl)sc(Cl)c21 (stereo not drawn) | > 100 µM (inactive) | > 100 µM (inactive) | > 100 µM (inactive) | > 100 µM (inactive) | > 10 µM (inactive) | 78.5 µM (inactive) | > 100 µM (inactive) | > 100 µM (inactive) | > 100 µM (inactive) | > 100 µM (inactive) | 41.4 µM (inactive) | > 100 µM (inactive) | > 100 µM (inactive) | > 100 µM (inactive) | > 100 µM (inactive) | > 100 µM (inactive) |  | > 100 µM (inactive) | > 100 µM (inactive) | > 100 µM (inactive)
OC1(c2ccc(Cl)cc2)c2c(ccc3c2OCO3)C2=NCCN21 (stereo not drawn) | 17.9 µM (inactive) | 36.8 µM (inactive) | 26.2 µM (inactive) | 53.7 µM (inactive) | 38.8 µM (inactive) | 40.1 µM (inactive) | 38 µM (inactive) | 30.5 µM (inactive) |  | 26.7 µM (inactive) | 21.5 µM (inactive) | 65.3 µM (inactive) | 70.3 µM (inactive) | 62.2 µM (inactive) | 75 µM (inactive) | 21.2 µM (inactive) |  | 19 µM (inactive) | 19.6 µM (inactive) | 45.8 µM (inactive)
O=C1c2ccccc2-c2nc(-c3ccccc3)cc3c2c1nc1ccccc13 | 9.25 µM (inactive) | 10.2 µM (inactive) | 1 µM (active) | 12.9 µM (inactive) | 1.03 µM (active) | 6.52 µM (inactive) | 18.5 µM (inactive) | 1.77 µM (inactive) | 13.8 µM (inactive) | 29.5 µM (inactive) | 2.11 µM (inactive) | 29.4 µM (inactive) | 16.9 µM (inactive) | 25.2 µM (inactive) | 23.5 µM (inactive) | 20 µM (inactive) |  | 2.56 µM (inactive) | 15.6 µM (inactive) | 26.7 µM (inactive)
CCOC(=O)CCC(NC(=O)OCc1ccccc1)C(=O)NC(CCC(=O)OCC)C(=O)NN (stereo not drawn) (Cbz-Glu(OEt)-Glu(OEt)-NHNH2; configuration not given here) | > 100 µM (inactive) | > 100 µM (inactive) | > 100 µM (inactive) | > 100 µM (inactive) | > 100 µM (inactive) | > 100 µM (inactive) | > 100 µM (inactive) |  | > 100 µM (inactive) |  | > 100 µM (inactive) | > 100 µM (inactive) | > 100 µM (inactive) | > 100 µM (inactive) | > 100 µM (inactive) | > 100 µM (inactive) |  | > 100 µM (inactive) | > 100 µM (inactive) | 
CCOC(=O)c1c(-c2ccc(Br)cc2)ccn1C | > 10 µM (inactive) | > 10 µM (inactive) | > 10 µM (inactive) | > 10 µM (inactive) | > 10 µM (inactive) | > 10 µM (inactive) | > 10 µM (inactive) | > 10 µM (inactive) | > 10 µM (inactive) | 4.65 µM (inactive) |  | > 10 µM (inactive) | > 10 µM (inactive) | > 10 µM (inactive) | > 10 µM (inactive) | > 10 µM (inactive) | > 10 µM (inactive) | > 10 µM (inactive) | > 10 µM (inactive) | > 10 µM (inactive)
CN(C)C(=O)OC1=CC2CCC(C1)N2C (stereo not drawn) | > 100 µM (inactive) | > 100 µM (inactive) | 88.7 µM (inactive) | > 100 µM (inactive) |  | 52.8 µM (inactive) | 82 µM (inactive) | 61.4 µM (inactive) |  | > 100 µM (inactive) | 47 µM (inactive) | > 100 µM (inactive) | 70.8 µM (inactive) | > 100 µM (inactive) | > 100 µM (inactive) | > 100 µM (inactive) | > 100 µM (inactive) | > 100 µM (inactive) | > 100 µM (inactive) | > 100 µM (inactive)
C=CCOC1=C(OC(C)=O)C(C2COC(C)(C)O2)OC1=O (stereo not drawn) | 22.2 µM (inactive) | 17.6 µM (inactive) | 18 µM (inactive) | 24.5 µM (inactive) | 19.6 µM (inactive) | 21.6 µM (inactive) | 17.9 µM (inactive) | 11.7 µM (inactive) | 38.2 µM (inactive) | 21.2 µM (inactive) |  | 17.5 µM (inactive) | 24 µM (inactive) | 18.7 µM (inactive) | 20.1 µM (inactive) | 35.6 µM (inactive) | 2.19 µM (inactive) | 22.2 µM (inactive) | 20.7 µM (inactive) | 21.5 µM (inactive)
COc1ccc(C2NC(N)=C(C#N)C3=C2C(C)CCC3)cc1OC (stereo not drawn) | > 100 µM (inactive) | > 100 µM (inactive) | 25.6 µM (inactive) | 44.4 µM (inactive) | 14.5 µM (inactive) | 2.75 µM (inactive) | 32.3 µM (inactive) | 35.5 µM (inactive) |  | > 100 µM (inactive) | 0.261 µM (active) | > 100 µM (inactive) |  | 77.1 µM (inactive) | 33.4 µM (inactive) | > 100 µM (inactive) |  | 56 µM (inactive) | 63.5 µM (inactive) | 
COc1ccccc1C(=O)Nc1ccc(Cl)c(C(=O)OC(C)C)c1 | 36.2 µM (inactive) | 39.1 µM (inactive) | 28.4 µM (inactive) | 52.2 µM (inactive) | > 41.1 µM (inactive) | > 45.8 µM (inactive) | 16 µM (inactive) | 43 µM (inactive) | > 63.7 µM (inactive) | 25 µM (inactive) |  | > 50 µM (inactive) | 40.2 µM (inactive) | 38 µM (inactive) | 39.9 µM (inactive) | 31.8 µM (inactive) | 33.2 µM (inactive) | 25.9 µM (inactive) | 25.9 µM (inactive) | 42.4 µM (inactive)
CSC(=S)N/N=C(\C)c1ccc(S(=O)(=O)N(C)c2ccccc2)cc1 | 34.8 µM (inactive) | 14.3 µM (inactive) | 13.9 µM (inactive) | > 100 µM (inactive) | 6.5 µM (inactive) | 19 µM (inactive) | 22.6 µM (inactive) | 18.3 µM (inactive) | > 100 µM (inactive) | 77.8 µM (inactive) | 5.19 µM (inactive) | > 100 µM (inactive) | 29.1 µM (inactive) | 34.4 µM (inactive) | 21.8 µM (inactive) | 35.3 µM (inactive) |  | 43.2 µM (inactive) | 21.9 µM (inactive) | 25.6 µM (inactive)
CCCCNC(=O)Nc1c(C(N)=O)c2n(c1C(=O)OCC)CCCCC2 | > 100 µM (inactive) | > 100 µM (inactive) | > 100 µM (inactive) |  | > 100 µM (inactive) | > 100 µM (inactive) | > 100 µM (inactive) | > 100 µM (inactive) | > 100 µM (inactive) | > 100 µM (inactive) | 75.9 µM (inactive) |  |  | > 100 µM (inactive) | > 100 µM (inactive) | > 100 µM (inactive) |  | > 100 µM (inactive) | > 100 µM (inactive) | > 100 µM (inactive)
